According to publication PMC6422671 (British Journal of Clinical Pharmacology, 2019):

Assay: Vital signs; data mean (standard deviation)
Format: in vivo, healthy men
Description: Data are mean (standard deviation)

SMILES: C[C@@H](N)c1cc(Cl)ccc1Cn1c(=S)[nH]c(=O)c2[nH]ccc21 [AZD4831]
- DBP (5 mg fasted, 0.5 h): 71 (7) mmHg
- Pulse (5 mg fasted, 0.5 h): 61 (4) bpm
- SBP (5 mg fasted, 0.5 h): 116 (10) mmHg
- DBP (5 mg fasted, 1 h): 71 (7) mmHg
- Pulse (5 mg fasted, 1 h): 61 (5) bpm
- SBP (5 mg fasted, 1 h): 114 (8) mmHg
- DBP (5 mg fasted, 2 h): 71 (5) mmHg
- Pulse (5 mg fasted, 2 h): 60 (4) bpm
- SBP (5 mg fasted, 2 h): 119 (10) mmHg
- DBP (5 mg fasted, 3 h): 72 (9) mmHg
- Pulse (5 mg fasted, 3 h): 60 (4) bpm
- SBP (5 mg fasted, 3 h): 119 (12) mmHg
- DBP (5 mg fasted, 4 h): 71 (7) mmHg
- Pulse (5 mg fasted, 4 h): 64 (5) bpm
- SBP (5 mg fasted, 4 h): 118 (9) mmHg
- DBP (5 mg fasted, 6 h): 69 (8) mmHg
- Pulse (5 mg fasted, 6 h): 68 (5) bpm
- SBP (5 mg fasted, 6 h): 118 (11) mmHg
- DBP (5 mg fasted, 8 h): 68 (5) mmHg
- Pulse (5 mg fasted, 8 h): 62 (5) bpm
- SBP (5 mg fasted, 8 h): 117 (9) mmHg
- DBP (5 mg fasted, 12 h): 69 (9) mmHg
- Pulse (5 mg fasted, 12 h): 68 (4) bpm
- SBP (5 mg fasted, 12 h): 118 (13) mmHg
- DBP (5 mg fasted, 24 h): 69 (5) mmHg
- Pulse (5 mg fasted, 24 h): 59 (5) bpm
- SBP (5 mg fasted, 24 h): 112 (5) mmHg
- DBP (5 mg fasted, 36 h): 69 (4) mmHg
- Pulse (5 mg fasted, 36 h): 68 (5) bpm
- SBP (5 mg fasted, 36 h): 119 (6) mmHg
- DBP (5 mg fasted, 48 h): 70 (4) mmHg
- Pulse (5 mg fasted, 48 h): 64 (9) bpm
- SBP (5 mg fasted, 48 h): 116 (8) mmHg
- DBP (15 mg fasted, 0.5 h): 68 (4) mmHg
- Pulse (15 mg fasted, 0.5 h): 58 (9) bpm
- SBP (15 mg fasted, 0.5 h): 115 (7) mmHg
- DBP (15 mg fasted, 1 h): 67 (4) mmHg
- Pulse (15 mg fasted, 1 h): 61 (9) bpm
- SBP (15 mg fasted, 1 h): 115 (8) mmHg
- DBP (15 mg fasted, 2 h): 65 (2) mmHg
- Pulse (15 mg fasted, 2 h): 58 (6) bpm
- SBP (15 mg fasted, 2 h): 113 (4) mmHg
- DBP (15 mg fasted, 3 h): 65 (3) mmHg
- Pulse (15 mg fasted, 3 h): 58 (4) bpm
- SBP (15 mg fasted, 3 h): 112 (5) mmHg
- DBP (15 mg fasted, 4 h): 66 (6) mmHg
- Pulse (15 mg fasted, 4 h): 59 (8) bpm
- SBP (15 mg fasted, 4 h): 113 (5) mmHg
- DBP (15 mg fasted, 6 h): 65 (2) mmHg
- Pulse (15 mg fasted, 6 h): 68 (9) bpm
- SBP (15 mg fasted, 6 h): 119 (9) mmHg
- DBP (15 mg fasted, 8 h): 64 (2) mmHg
- Pulse (15 mg fasted, 8 h): 63 (11) bpm
- SBP (15 mg fasted, 8 h): 116 (7) mmHg
- DBP (15 mg fasted, 12 h): 64 (4) mmHg
- Pulse (15 mg fasted, 12 h): 69 (10) bpm
- SBP (15 mg fasted, 12 h): 119 (5) mmHg
- DBP (15 mg fasted, 24 h): 67 (2) mmHg
- Pulse (15 mg fasted, 24 h): 62 (7) bpm
- SBP (15 mg fasted, 24 h): 113 (4) mmHg
- DBP (15 mg fasted, 36 h): 63 (4) mmHg
- Pulse (15 mg fasted, 36 h): 73 (9) bpm
- SBP (15 mg fasted, 36 h): 118 (5) mmHg
- DBP (15 mg fasted, 48 h): 66 (5) mmHg
- Pulse (15 mg fasted, 48 h): 65 (12) bpm
- SBP (15 mg fasted, 48 h): 114 (7) mmHg
- DBP (45 mg fasted, 0.5 h): 73 (14) mmHg
- Pulse (45 mg fasted, 0.5 h): 59 (11) bpm
- SBP (45 mg fasted, 0.5 h): 122 (13) mmHg
- DBP (45 mg fasted, 1 h): 72 (14) mmHg
- Pulse (45 mg fasted, 1 h): 57 (10) bpm
- SBP (45 mg fasted, 1 h): 125 (12) mmHg
- DBP (45 mg fasted, 2 h): 69 (15) mmHg
- Pulse (45 mg fasted, 2 h): 59 (10) bpm
- SBP (45 mg fasted, 2 h): 122 (17) mmHg
- DBP (45 mg fasted, 3 h): 70 (13) mmHg
- Pulse (45 mg fasted, 3 h): 60 (8) bpm
- SBP (45 mg fasted, 3 h): 120 (14) mmHg
- DBP (45 mg fasted, 4 h): 69 (16) mmHg
- Pulse (45 mg fasted, 4 h): 58 (8) bpm
- SBP (45 mg fasted, 4 h): 121 (13) mmHg
- DBP (45 mg fasted, 6 h): 66 (7) mmHg
- Pulse (45 mg fasted, 6 h): 61 (10) bpm
- SBP (45 mg fasted, 6 h): 120 (9) mmHg
- DBP (45 mg fasted, 8 h): 68 (15) mmHg
- Pulse (45 mg fasted, 8 h): 59 (11) bpm
- SBP (45 mg fasted, 8 h): 116 (11) mmHg
- DBP (45 mg fasted, 12 h): 68 (11) mmHg
- Pulse (45 mg fasted, 12 h): 63 (12) bpm
- SBP (45 mg fasted, 12 h): 124 (12) mmHg
- DBP (45 mg fasted, 24 h): 71 (11) mmHg
- Pulse (45 mg fasted, 24 h): 58 (11) bpm
- SBP (45 mg fasted, 24 h): 118 (9) mmHg
- DBP (45 mg fasted, 36 h): 66 (14) mmHg
- Pulse (45 mg fasted, 36 h): 66 (11) bpm
- SBP (45 mg fasted, 36 h): 121 (9) mmHg
- DBP (45 mg fasted, 48 h): 69 (11) mmHg
- Pulse (45 mg fasted, 48 h): 64 (13) bpm
- SBP (45 mg fasted, 48 h): 120 (10) mmHg
- DBP (45 mg fed, 0.5 h): 66 (16) mmHg
- Pulse (45 mg fed, 0.5 h): 63 (6) bpm
- SBP (45 mg fed, 0.5 h): 121 (15) mmHg
- DBP (45 mg fed, 1 h): 65 (11) mmHg
- Pulse (45 mg fed, 1 h): 66 (11) bpm
- SBP (45 mg fed, 1 h): 122 (16) mmHg
- DBP (45 mg fed, 2 h): 66 (18) mmHg
- Pulse (45 mg fed, 2 h): 64 (9) bpm
- SBP (45 mg fed, 2 h): 120 (12) mmHg
- DBP (45 mg fed, 3 h): 69 (11) mmHg
- Pulse (45 mg fed, 3 h): 64 (9) bpm
- SBP (45 mg fed, 3 h): 125 (13) mmHg
- DBP (45 mg fed, 4 h): 67 (15) mmHg
- Pulse (45 mg fed, 4 h): 62 (10) bpm
- SBP (45 mg fed, 4 h): 123 (17) mmHg
- DBP (45 mg fed, 6 h): 70 (15) mmHg
- Pulse (45 mg fed, 6 h): 64 (8) bpm
- SBP (45 mg fed, 6 h): 120 (7) mmHg
- DBP (45 mg fed, 8 h): 71 (17) mmHg
- Pulse (45 mg fed, 8 h): 59 (9) bpm
- SBP (45 mg fed, 8 h): 121 (14) mmHg
- DBP (45 mg fed, 12 h): 69 (15) mmHg
- Pulse (45 mg fed, 12 h): 63 (10) bpm
- SBP (45 mg fed, 12 h): 124 (8) mmHg
- DBP (45 mg fed, 24 h): 69 (12) mmHg
- Pulse (45 mg fed, 24 h): 57 (9) bpm
- SBP (45 mg fed, 24 h): 114 (9) mmHg
- DBP (45 mg fed, 36 h): 71 (15) mmHg
- Pulse (45 mg fed, 36 h): 62 (9) bpm
- SBP (45 mg fed, 36 h): 127 (9) mmHg
- DBP (45 mg fed, 48 h): 73 (13) mmHg
- Pulse (45 mg fed, 48 h): 57 (4) bpm
- SBP (45 mg fed, 48 h): 116 (7) mmHg
- DBP (135 mg fasted, 0.5 h): 69 (5) mmHg
- Pulse (135 mg fasted, 0.5 h): 59 (6) bpm
- SBP (135 mg fasted, 0.5 h): 113 (8) mmHg
- DBP (135 mg fasted, 1 h): 70 (4) mmHg
- Pulse (135 mg fasted, 1 h): 61 (9) bpm
- SBP (135 mg fasted, 1 h): 110 (5) mmHg
- DBP (135 mg fasted, 2 h): 68 (6) mmHg
- Pulse (135 mg fasted, 2 h): 59 (7) bpm
- SBP (135 mg fasted, 2 h): 113 (10) mmHg
- DBP (135 mg fasted, 3 h): 68 (6) mmHg
- Pulse (135 mg fasted, 3 h): 59 (6) bpm
- SBP (135 mg fasted, 3 h): 113 (7) mmHg
- DBP (135 mg fasted, 4 h): 69 (6) mmHg
- Pulse (135 mg fasted, 4 h): 60 (7) bpm
- SBP (135 mg fasted, 4 h): 116 (8) mmHg
- DBP (135 mg fasted, 6 h): 66 (6) mmHg
- Pulse (135 mg fasted, 6 h): 67 (8) bpm
- SBP (135 mg fasted, 6 h): 113 (10) mmHg
- DBP (135 mg fasted, 8 h): 70 (6) mmHg
- Pulse (135 mg fasted, 8 h): 62 (4) bpm
- SBP (135 mg fasted, 8 h): 113 (8) mmHg
- DBP (135 mg fasted, 12 h): 69 (7) mmHg
- Pulse (135 mg fasted, 12 h): 70 (5) bpm
- SBP (135 mg fasted, 12 h): 119 (9) mmHg
- DBP (135 mg fasted, 24 h): 69 (3) mmHg
- Pulse (135 mg fasted, 24 h): 65 (9) bpm
- SBP (135 mg fasted, 24 h): 115 (7) mmHg
- DBP (135 mg fasted, 36 h): 67 (6) mmHg
- Pulse (135 mg fasted, 36 h): 73 (7) bpm
- SBP (135 mg fasted, 36 h): 118 (12) mmHg
- DBP (135 mg fasted, 48 h): 71 (5) mmHg
- Pulse (135 mg fasted, 48 h): 67 (9) bpm
- SBP (135 mg fasted, 48 h): 114 (10) mmHg
- DBP (405 mg fasted, 0.5 h): 70 (7) mmHg
- Pulse (405 mg fasted, 0.5 h): 61 (8) bpm
- SBP (405 mg fasted, 0.5 h): 116 (9) mmHg
- DBP (405 mg fasted, 1 h): 69 (8) mmHg
- Pulse (405 mg fasted, 1 h): 61 (8) bpm
- SBP (405 mg fasted, 1 h): 114 (6) mmHg
- DBP (405 mg fasted, 2 h): 68 (6) mmHg
- Pulse (405 mg fasted, 2 h): 58 (8) bpm
- SBP (405 mg fasted, 2 h): 114 (9) mmHg
- DBP (405 mg fasted, 3 h): 67 (5) mmHg
- Pulse (405 mg fasted, 3 h): 57 (6) bpm
- SBP (405 mg fasted, 3 h): 112 (6) mmHg
- DBP (405 mg fasted, 4 h): 69 (7) mmHg
- Pulse (405 mg fasted, 4 h): 60 (8) bpm
- SBP (405 mg fasted, 4 h): 115 (5) mmHg
- DBP (405 mg fasted, 6 h): 66 (5) mmHg
- Pulse (405 mg fasted, 6 h): 63 (8) bpm
- SBP (405 mg fasted, 6 h): 113 (4) mmHg
- DBP (405 mg fasted, 8 h): 67 (5) mmHg
- Pulse (405 mg fasted, 8 h): 59 (7) bpm
- SBP (405 mg fasted, 8 h): 113 (5) mmHg
- DBP (405 mg fasted, 12 h): 67 (4) mmHg
- Pulse (405 mg fasted, 12 h): 63 (8) bpm
- SBP (405 mg fasted, 12 h): 114 (8) mmHg
- DBP (405 mg fasted, 24 h): 71 (2) mmHg
- Pulse (405 mg fasted, 24 h): 60 (7) bpm
- SBP (405 mg fasted, 24 h): 113 (4) mmHg
- DBP (405 mg fasted, 36 h): 68 (4) mmHg
- Pulse (405 mg fasted, 36 h): 65 (5) bpm
- SBP (405 mg fasted, 36 h): 118 (4) mmHg
- DBP (405 mg fasted, 48 h): 71 (7) mmHg
- Pulse (405 mg fasted, 48 h): 65 (9) bpm
- SBP (405 mg fasted, 48 h): 118 (4) mmHg
- changes in vital signs or electrocardiography parameters (in vivo): no clinically significant changes
